Measured values as given in PubChem BioAssay (NCI).
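Briefly, cells in 96-well plates were exposed to five compound concentrations for 48 h, and endpoints were estimated by linear interpolation. TGI: concentration producing complete growth inhibition.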

Assays:
Assay in all cases: NCI-60 cell line screen, 48 h
[1] = tested on: 786-0 renal
[2] = tested on: A498 renal
[3] = tested on: A549 NSCLC
[4] = tested on: ACHN renal
[5] = tested on: CAKI-1 renal
[6] = tested on: CCRF-CEM leukemia
[7] = tested on: COLO 205 colon
[8] = tested on: DLD-1 colon
[9] = tested on: DMS 114 small cell lung
[10] = tested on: DMS 273 small cell lung
[11] = tested on: EKVX NSCLC
[12] = tested on: HCC-2998 colon
[13] = tested on: HCT-116 colon
[14] = tested on: HCT-15 colon
[15] = tested on: HL-60(TB) leukemia
[16] = tested on: HOP-18 NSCLC
[17] = tested on: HOP-62 NSCLC
[18] = tested on: HOP-92 NSCLC
[19] = tested on: HT29 colon
[20] = tested on: IGROV1 ovarian
[21] = tested on: K-562 leukemia
[22] = tested on: KM12 colon
[23] = tested on: KM20L2 colon
[24] = tested on: LOX IMVI melanoma
[25] = tested on: LXFL 529 NSCLC
[26] = tested on: M14 melanoma
[27] = tested on: M19-MEL melanoma
[28] = tested on: MALME-3M melanoma
[29] = tested on: MOLT-4 leukemia
[30] = tested on: NCI-H226 lung
[31] = tested on: NCI-H23 lung
[32] = tested on: NCI-H460 lung
[33] = tested on: NCI-H522 lung
[34] = tested on: OVCAR-3 ovarian
[35] = tested on: OVCAR-4 ovarian
[36] = tested on: OVCAR-5 ovarian
[37] = tested on: OVCAR-8 ovarian
[38] = tested on: RPMI-8226 leukemia
[39] = tested on: RXF 393 renal
[40] = tested on: RXF-631 renal
[41] = tested on: SF-268 CNS
[42] = tested on: SF-295 CNS
[43] = tested on: SF-539 CNS
[44] = tested on: SK-MEL-2 melanoma
[45] = tested on: SK-MEL-28 melanoma
[46] = tested on: SK-MEL-5 melanoma
[47] = tested on: SK-OV-3 ovarian
[48] = tested on: SN12C renal
[49] = tested on: SNB-19 CNS
[50] = tested on: SNB-75 CNS
[51] = tested on: SNB-78 CNS
[52] = tested on: SW-620 colon
[53] = tested on: TK-10 renal
[54] = tested on: U251 CNS
[55] = tested on: UACC-257 melanoma
[56] = tested on: UACC-62 melanoma
[57] = tested on: UO-31 renal
[58] = tested on: XF 498 CNS

**Q.** Cc1nc(N)c(-c2ccccc2)s1 was tested. Which TGI [1] did it give?
**A.** > 100 µM

**Q.** What about the TGI [2] of the same molecule?
**A.** > 100 µM

**Q.** And the TGI [3]?
**A.** > 100 µM

**Q.** What about the TGI [4] of the same molecule?
**A.** > 100 µM

**Q.** What about the TGI [5] of the same molecule?
**A.** > 100 µM

**Q.** And the TGI [6]?
**A.** > 73.9 µM

**Q.** And the TGI [7]?
**A.** > 66.7 µM

**Q.** And the TGI [8]?
**A.** > 100 µM

**Q.** And the TGI [9]?
**A.** > 100 µM

**Q.** What about the TGI [10] of the same molecule?
**A.** > 100 µM

**Q.** And the TGI [11]?
**A.** > 100 µM

**Q.** And the TGI [12]?
**A.** > 100 µM

**Q.** What about the TGI [13] of the same molecule?
**A.** > 66.8 µM

**Q.** What about the TGI [14] of the same molecule?
**A.** > 62.1 µM

**Q.** What about the TGI [15] of the same molecule?
**A.** > 72.9 µM

**Q.** And the TGI [16]?
**A.** > 100 µM

**Q.** And the TGI [17]?
**A.** > 100 µM

**Q.** And the TGI [18]?
**A.** > 100 µM

**Q.** And the TGI [19]?
**A.** > 100 µM

**Q.** What about the TGI [20] of the same molecule?
**A.** > 100 µM

**Q.** What about the TGI [21] of the same molecule?
**A.** > 100 µM

**Q.** And the TGI [22]?
**A.** > 100 µM

**Q.** And the TGI [23]?
**A.** > 100 µM

**Q.** And the TGI [24]?
**A.** > 94.4 µM

**Q.** And the TGI [25]?
**A.** > 100 µM

**Q.** What about the TGI [26] of the same molecule?
**A.** > 100 µM

**Q.** What about the TGI [27] of the same molecule?
**A.** > 100 µM

**Q.** What about the TGI [28] of the same molecule?
**A.** > 100 µM

**Q.** And the TGI [29]?
**A.** > 100 µM

**Q.** And the TGI [30]?
**A.** > 100 µM

**Q.** What about the TGI [31] of the same molecule?
**A.** > 100 µM

**Q.** What about the TGI [32] of the same molecule?
**A.** > 100 µM

**Q.** And the TGI [33]?
**A.** > 100 µM

**Q.** What about the TGI [34] of the same molecule?
**A.** > 100 µM

**Q.** What about the TGI [35] of the same molecule?
**A.** > 100 µM

**Q.** What about the TGI [36] of the same molecule?
**A.** > 100 µM

**Q.** And the TGI [37]?
**A.** > 100 µM

**Q.** And the TGI [38]?
**A.** > 72.1 µM

**Q.** What about the TGI [39] of the same molecule?
**A.** > 68.9 µM

**Q.** What about the TGI [40] of the same molecule?
**A.** > 100 µM

**Q.** And the TGI [41]?
**A.** > 100 µM

**Q.** What about the TGI [42] of the same molecule?
**A.** 92.4 µM

**Q.** What about the TGI [43] of the same molecule?
**A.** > 100 µM

**Q.** And the TGI [44]?
**A.** > 100 µM

**Q.** What about the TGI [45] of the same molecule?
**A.** > 100 µM

**Q.** And the TGI [46]?
**A.** > 100 µM

**Q.** And the TGI [47]?
**A.** > 100 µM

**Q.** What about the TGI [48] of the same molecule?
**A.** > 100 µM

**Q.** And the TGI [49]?
**A.** > 100 µM

**Q.** And the TGI [50]?
**A.** > 100 µM

**Q.** What about the TGI [51] of the same molecule?
**A.** > 100 µM

**Q.** What about the TGI [52] of the same molecule?
**A.** > 45.6 µM

**Q.** What about the TGI [53] of the same molecule?
**A.** > 100 µM

**Q.** And the TGI [54]?
**A.** > 76.4 µM

**Q.** What about the TGI [55] of the same molecule?
**A.** > 96.1 µM

**Q.** What about the TGI [56] of the same molecule?
**A.** > 100 µM

**Q.** And the TGI [57]?
**A.** > 100 µM

**Q.** What about the TGI [58] of the same molecule?
**A.** > 100 µM

**Q.** What does the source list for CCOc1ccc(OCC)c([P+](c2ccccc2)(c2ccccc2)c2ccccc2)c1?
**A.** TGI [1]: 15.6 µM; TGI [2]: 4.42 µM; TGI [3]: 11.6 µM; TGI [4]: 10.5 µM; TGI [5]: 6.1 µM; TGI [6]: 14.7 µM; TGI [7]: 1.31 µM; TGI [8]: 16 µM; TGI [9]: 3.18 µM; TGI [10]: 1.21 µM; TGI [11]: 16.5 µM; TGI [12]: 11 µM; TGI [13]: 11.8 µM; TGI [15]: 0.529 µM; TGI [16]: 6.22 µM; TGI [17]: 3.92 µM; TGI [18]: 0.95 µM; TGI [19]: 12.9 µM; TGI [20]: 13.3 µM; TGI [21]: 17 µM; TGI [22]: 10.1 µM; TGI [23]: 4.13 µM; TGI [24]: 3.1 µM; TGI [25]: 10.4 µM; TGI [26]: 12.6 µM; TGI [27]: 16.3 µM; TGI [28]: 23.3 µM; TGI [30]: 3.24 µM; TGI [31]: 1.17 µM; TGI [32]: 11.6 µM; TGI [34]: 2.74 µM; TGI [35]: 29 µM; TGI [36]: 6.91 µM; TGI [37]: 12.5 µM; TGI [38]: 2.36 µM; TGI [39]: 15.7 µM; TGI [40]: 51.4 µM; TGI [41]: 24.4 µM; TGI [42]: 6.38 µM; TGI [43]: 8.77 µM; TGI [45]: 16.8 µM; TGI [46]: 1.14 µM; TGI [48]: 5.61 µM; TGI [49]: 12.7 µM; TGI [50]: 10.6 µM; TGI [51]: > 100 µM; TGI [52]: 13.1 µM; TGI [53]: 12 µM; TGI [54]: 10.8 µM; TGI [55]: 3.8 µM; TGI [56]: 14.8 µM; TGI [58]: 0.542 µM
